“Also recorded” adds a separate entry of the source. Where a SMILES comes first, the peptide text is derived from it. Where no end group is shown, it is not given here. [ ]: non-standard residue; d: D form. The star is where a group is joined. Toyopearl = Toyopearl AF-Amino-650M resin to which the C-terminus is tethered; Trp(1-Me) = Cn1cc(C[C@H](N)C(=O)O)c2ccccc21; Phe(4-Me) = Cc1ccc(C[C@H](N)C(=O)O)cc1; Lys(Me2) = CN(C)CCCC[C@H](N)C(=O)O; Cit = NC(=O)NCCC[C@H](N)C(=O)O; For = O=C*

Data set [1] deals with trypsin. The data set can be described thus: Resistance of peptide ligands to proteolytic digestion: IgG yield after contact with trypsin. It counts as in vitro ADME. Conditions: for IgG Yield 3rd run (after trypsin): after α-chymotrypsin and then trypsin in Tris buffer pH 8.5; for resistance to trypsin (in words): loss of IgG binding capacity after enzyme treatment, FIG. 2. As to the method: (§1) All resins (35 mg each) were packed in a 30 mm×2.1 mm I.D. Microbore column (0.1 mL) (Alltech-Applied Science, Somerset, Pa., USA) and swollen with 20% v/v methanol. After equilibration with PBS, pH 7.4, three IgG binding tests were performed using a 10 mg/mL solution of hIgG in PBS. Between each binding test, the resin was contacted with a 0.15 mg/mL solution of either trypsin or α-chymotrypsin in Tris HCl buffer, pH 8.5. The chromatographic protocol employed for all five injections was as follows. One hundred microliters of feed sample was loaded onto the column at a flow rate of 0.05 mL/min (87 cm/h). After a washing step with 2 mL of equilibration buffer at a flow rate of 0.2 mL/min (348 cm/h), elution was performed with 4 mL of 0.2M acetate buffer pH 4.0 at a flow rate of 0.4 mL/min (696 cm/h). Finally, the adsorbent was regenerated with 4 mL of 0.85% phosphoric acid. The adsorbents HWRGWV-, HYFKFD-, and HFRRHL-Toyopearl (SEQ ID NOS: 6, 16, 17) resins were used as controls. The effluent was monitored by absorbance at 280 nm.
(§2) Based on the results reported in Table 2, the original sequences HWRGWV, HFRRHL, and HYFKFD (SEQ ID NOS: 1-3), and their variants HWMetCitGWMetV, HFMetCitCitHL, and HYMetFMetK(Met)2FMetD (SEQ ID NOS: 4, 5, 7) were tested for their resistance to enzymatic digestion. The sequences HWMetCitGWMetV (SEQ ID NO: 8), HFMetCitCitHL (SEQ ID NO: 5) were selected as the best variants of their respective original peptides, while HYMetFMetKMet2FMetD (SEQ ID NO: 7) was used as a negative control. […] Each adsorbent was subjected to five consecutive chromatographic runs. First, a solution of pure human polyclonal IgG at 10 mg/mL in PBS was injected to determine IgG yield for each adsorbent prior to contact with any enzyme. All four peptide variants gave a yield above 91% for this initial run. The resin was then contacted with a solution of α-chymotrypsin in Tris buffer pH 8.5 for 10 minutes. The amount of enzyme loaded onto the column was in a mass ratio of 1:100 peptide:enzyme, as done by Verdoliva et al.. After rinsing the resin, a second injection of IgG was then performed to estimate the loss of binding capacity due to the digestion of the peptide ligand by α-chymotrypsin. The resin was then contacted with the second enzyme solution, i.e., trypsin in Tris buffer pH 8.5, at the same peptide:enzyme ratio. A third IgG injection was finally performed to estimate the residual binding capacity of each resin after the second enzyme treatment.

Data set [2] deals with T1, α-chymotrypsin (Bos taurus, UniProt P00766).
T1 construct: purchased Sigma Aldrich
The data set can be described thus: Resistance of peptide ligands to proteolytic digestion: IgG yield after contact with α-chymotrypsin. Conditions: for IgG Yield 2nd run (after α-chymotrypsin): after contact with α-chymotrypsin in Tris buffer pH 8.5 for 10 minutes; for resistance to α-chymotrypsin (in words): loss of IgG binding capacity after enzyme treatment, FIG. 2. It is filed as in vitro ADME. As to the method:
as §1, §2

The test system of data set [3] is human polyclonal IgG. The data set can be described thus: Chromatographic IgG binding test of peptide-Toyopearl adsorbents with pure human polyclonal IgG. Conditions: peptide on Toyopearl resin, approx. 0.12 meq/g, 0.1 mL column; ratio of IgG eluted to total IgG loaded. As to the method: All resins (35 mg each) were packed in a 30 mm×2.1 mm I.D. Microbore column (0.1 mL) (Alltech-Applied Science, Somerset, Pa., USA) and swollen with 20% v/v methanol. After equilibration with PBS, pH 7.4, three IgG binding tests were performed using a 10 mg/mL solution of hIgG in PBS. Between each binding test, the resin was contacted with a 0.15 mg/mL solution of either trypsin or α-chymotrypsin in Tris HCl buffer, pH 8.5. The chromatographic protocol employed for all five injections was as follows. One hundred microliters of feed sample was loaded onto the column at a flow rate of 0.05 mL/min (87 cm/h). […] The effluent was monitored by absorbance at 280 nm.
The amount of IgG in the collected fractions was quantified by HPLC using 1 mL HiTrap Protein G column. The yield of IgG was calculated as the ratio of IgG eluted to total IgG loaded. The purity of IgG in the eluted fractions was determined by sodium dodecyl sulfate polyacrylamide gel electrophoresis (SDS-PAGE) under reducing conditions using NuPAGE® Novex 4-12% Bis-Tris gels in a Xcell SuperLock™ Mini-Cell system (LifeSciences, Carlsbad, Calif., USA). […] The IgG purity was determined by densitometric analysis of Coomassie-stained gels by means of ImageJ 1.32j software (National Institutes of Health, Bethesda, Md., USA). […]

Data set [4] concerns IgG. The data set can be described thus: Purification of IgG (IVIG) from Cohn fraction II+III of human plasma, yield and purity. It is filed as binding.
Protocol: Cohn fraction II+III was dissolved in PBS, pH 7.4 to obtain an approximate IgG concentration of 5 mg/mL and filtered sequentially using a 0.44 μm and a 0.22 μm filter from Pall Corporation (Port Washington, N.Y., USA). […] After equilibration with PBS buffer containing 0.25M NaCl, 100 μL of feed sample was loaded onto the column at a flow rate of 0.05 mL/min (87 cm/h). After washing the column with 2 mL of equilibration buffer at a flow rate of 0.2 mL/min (348 cm/h), elution was performed with 4 mL of 0.2M acetate buffer pH 5.0 at a flow rate of 0.4 mL/min (696 cm/h). Cleaning and regeneration were performed using 4 mL of 0.85% phosphoric acid followed by a wash with 4 mL of 2M urea in acetate buffer (pH 4.0). Toyopearl AF-rProtein A-650F resin was used as a positive control. As per manufacturer's instructions, the chromatographic protocol comprised binding with PBS, pH 7.4 (at a flow rate of 0.05 mL/min) and elution with 0.1M Glycine buffer pH 2.5 (at a flow rate of 0.4 mL/min). The effluent was monitored by absorbance at 280 nm. Fractions were collected and used for analysis of IgG purity and yield as described below.
The effect of conductivity of the binding buffer was studied at 0, 0.135 and 0.25 M NaCl added to PBS. After equilibration with binding buffer, 100 μL of feed was loaded onto the column at a flow rate of 0.05 mL/min (87 cm/h). Chromatographic protocol and fraction collection were done as above described.
The amount of IgG in the collected fractions was quantified by HPLC using 1 mL HiTrap Protein G column. The yield of IgG was calculated as the ratio of IgG eluted to total IgG loaded. The purity of IgG in the eluted fractions was determined by sodium dodecyl sulfate polyacrylamide gel electrophoresis (SDS-PAGE) under reducing conditions using NuPAGE® Novex 4-12% Bis-Tris gels in a Xcell SuperLock™ Mini-Cell system (LifeSciences, Carlsbad, Calif., USA). Sample preparation was done by adding 5 μL of NuPAGE® LDS buffer and 2 μL of NuPAGE® reducing agent to 13 μL of sample and boiling the resulting mixture for 10 min. Gels were Coomassie-stained by using SimpleBlue™ SafeStain. The IgG purity was determined by densitometric analysis of Coomassie-stained gels by means of ImageJ 1.32j software (National Institutes of Health, Bethesda, Md., USA).
The purity of the product was calculated as the fraction of the total area equivalent to the IgG bands at 25 and 50 KDa.
The original peptide ligands were employed as positive controls. The crude stock of Cohn II+III paste was diluted in PBS to prepare the feed sample and solid particles were removed by filtration prior to injection into the column. The chromatographic protocol adopted in this work was derived from previous optimizations and comprised the use of 0.25M NaCl in PBS as binding buffer and 0.2M acetate buffer pH 5.0 for elution [24]. Fractions were collected and analyzed by Protein G chromatography and SDS-PAGE (FIG. 3) to determine IgG yield and purity respectively.
To verify this hypothesis, binding studies were repeated using the above listed sequences and three binding buffers, comprising 0M, 0.13M, and 0.25M NaCl in PBS.
The mark [5] stands for this setting: 0.13M NaCl in PBS binding buffer.
[6] abbreviates: 0.25M NaCl in PBS binding buffer.

For `Cc1ccc(C[C@H](NC(=O)[C@@H](N)Cc2c[nH]cn2)C(=O)N[C@@H](CCCNC(N)=O)C(=O)N[C@@H](CCCNC(N)=O)C(=O)N[C@@H](Cc2c[nH]cn2)C(=O)N[C@@H](CC(C)C)C(=O)O)cc1` [HFMetCitCitHL] (H-H[Phe(4-Me)][Cit][Cit]HL-OH; N-terminus and C-terminus assumed), the “IgG Yield 3rd run (after trypsin)” value in data set [1] came to 91%. In addition, the “IgG Yield 2nd run (after α-chymotrypsin)” value in data set [2] is 92%.

For `CC(C)[C@H](NC(=O)[C@H](Cc1cn(C=O)c2ccccc12)NC(=O)CNC(=O)[C@H](CCCNC(N)=O)NC(=O)[C@H](Cc1cn(C=O)c2ccccc12)NC(=O)[C@@H](N)Cc1c[nH]cn1)C(=O)O` [HWForCitGWForV] (H-HW(For)[Cit]GW(For)V-OH; N-terminus and C-terminus assumed), the “IgG Yield 3rd run (after trypsin)” value in data set [1] worked out at 69%. Also, in data set [2], the “IgG Yield 2nd run (after α-chymotrypsin)” value is 69%.

For `COc1ccc(C[C@H](NC(=O)[C@@H](N)Cc2c[nH]cn2)C(=O)N[C@@H](Cc2ccc(C)cc2)C(=O)N[C@@H](CCCCN(C)C)C(=O)N[C@@H](Cc2ccc(C)cc2)C(=O)N[C@@H](CC(=O)O)C(=O)O)cc1` [HYMetFMetKMet2FMetD] (H-HY(Me)[Phe(4-Me)][Lys(Me2)][Phe(4-Me)]D-OH; N-terminus and C-terminus assumed), in data set [1], the “IgG Yield 3rd run (after trypsin)” value is on record as 53% and the “resistance to trypsin (in words)” value is “high resistance to proteolysis”. In data set [2], the “IgG Yield 2nd run (after α-chymotrypsin)” value is 49% and the “resistance to α-chymotrypsin (in words)” value is given as “high resistance to proteolysis”.

For “HWMetCitDWMetV: variant created by replacing glycine with aspartic acid”, in data set [3], the IgG Yield was determined as 47%.

As for HFRRHL [HFRRHL, reference compound], in data set [1], the “IgG Yield 3rd run (after trypsin)” value was 54% and the “resistance to trypsin (in words)” value was “good substrate for trypsin”. Further, the “IgG Yield 2nd run (after α-chymotrypsin)” value in data set [2] turned out to be 78%.

With “HFcarbCitCitHL: variant of HFRRHL designed using carbamoyl-phenylalanine and citrulline (HF[Cit][Cit]HL-Toyopearl; not fully specified (residue 2); printed as HFcarbCitCitHL)”, the IgG Yield in data set [3] is on record as 53%.

As to HYFKFD [HYFKFD, reference compound], in data set [1], the “IgG Yield 3rd run (after trypsin)” value is on record as 71% and the “resistance to trypsin (in words)” value is on record as “almost immune to the attack of trypsin”. The “IgG Yield 2nd run (after α-chymotrypsin)” value in data set [2] was 76%.

On to `CC(C)[C@H](NC(=O)[C@H](Cc1c[nH]c2ccccc12)NC(=O)CNC(=O)[C@H](CCCNC(N)=O)NC(=O)[C@H](Cc1c[nH]c2ccccc12)NC(=O)[C@@H](N)Cc1c[nH]cn1)C(=O)O` [HWCitGWV] (H-HW[Cit]GWV-OH; N-terminus and C-terminus assumed), for which, in data set [1], the “IgG Yield 3rd run (after trypsin)” value is listed as 71% and the “resistance to trypsin (in words)” value is “resistance towards one enzyme only”. In addition, the “IgG Yield 2nd run (after α-chymotrypsin)” value in data set [2] was 73%.

As to `CC(C)[C@H](NC(=O)[C@H](Cc1cn(C)c2ccccc12)NC(=O)CNC(=O)[C@H](CCCNC(=N)N)NC(=O)[C@H](Cc1cn(C)c2ccccc12)NC(=O)[C@@H](N)Cc1c[nH]cn1)C(=O)O` [HWMetRGWMetV] (H-H[Trp(1-Me)]RG[Trp(1-Me)]V-OH; N-terminus and C-terminus assumed), the “IgG Yield 3rd run (after trypsin)” value in data set [1] came to 82%. Also, in data set [2], the “IgG Yield 2nd run (after α-chymotrypsin)” value is given as 91% and the “resistance to α-chymotrypsin (in words)” value is “resistance towards one enzyme only”.

As for “Ac-HWRGWV: acetylated version of the original HWRGWV (not fully specified (C-terminus); printed as Ac-HWRGWV; also: TOYOPEARL at residue 6)”, the “IgG Purity” value in data set [4] (0M NaCl in PBS binding buffer) came out at 80%; in data set [4] (setting [5]) it was 80%; in data set [4] (setting [6]) it was 84%. Besides, the “IgG Yield” value was 91% in data set [4] (0M NaCl in PBS binding buffer), 84% in data set [4] (setting [5]) and 83% in data set [4] (setting [6]).

In the case of `CC(C)[C@H](NC(=O)[C@H](Cc1cn(C)c2ccccc12)NC(=O)CNC(=O)[C@H](CCCNC(N)=O)NC(=O)[C@H](Cc1cn(C)c2ccccc12)NC(=O)[C@@H](N)Cc1c[nH]cn1)C(=O)O` [HWMetCitGWMetV] (H-H[Trp(1-Me)][Cit]G[Trp(1-Me)]V-OH; N-terminus and C-terminus assumed), in data set [1], the “IgG Yield 3rd run (after trypsin)” value worked out at 90% and the “resistance to trypsin (in words)” value is “completely unaffected by either”. For the same compound, in data set [2], the “IgG Yield 2nd run (after α-chymotrypsin)” value was found to be 91% and the “resistance to α-chymotrypsin (in words)” value is given as “completely unaffected by either”.

Consider “Ac-HWMetCitGWMetV: acetylated version of the variant HWMetCitGWMetV (Ac-H[Trp(1-Me)][Cit]G[Trp(1-Me)]V; not fully specified (C-terminus))”, for which, in data set [4] (setting [6]), the “IgG Purity” value turned out to be 92%. The “IgG yield over the binding buffers” value in data set [4] (over 0M, 0.13M, 0.25M NaCl binding buffers) is given as “above 90%”.

Turning to HWRGWV [HWRGWV, reference compound], in data set [1], the “IgG Yield 3rd run (after trypsin)” value was 36%; the “resistance to trypsin (in words)” value is “degraded by both trypsin and α-chymotrypsin; also recorded: ideal substrate for trypsin”. Also, in data set [2], the “IgG Yield 2nd run (after α-chymotrypsin)” value is on record as 72%; the “resistance to α-chymotrypsin (in words)” value was “degraded by both trypsin and α-chymotrypsin”.
